Measured values taken from ChEMBL document CHEMBL4373676, “Non-lethal growth inhibition by arresting the starch utilization system of clinically relevant human isolates of Bacteroides dorei” (Medchemcomm, 2019).
Activity calls are given as the source filed them. No cut-off for these calls is given here.

Key:
[1] = Inhibition of starch utilizing system in Bacteroides dorei JRO3 assessed as microbial growth at 100 uM measured at 30 mins interval with 15 secs shaking for up to 48 hrs in presence of potato starch by spectrophotometric analysis relative to untreated control; design: scale not given: the % may be the effect or the level left; details: Phocaeicola dorei
Phocaeicola dorei [2] = experiment: Effect on growth of Bacteroides dorei JRO1 assessed as microbial growth at 100 uM measured at 30 mins interval with 15 secs shaking for up to 48 hrs in presence of glucose by spectrophotometric analysis relative to untreated control; type: organism-based; details: in vivo
Phocaeicola dorei [3] = experiment: Effect on growth of Bacteroides dorei JRO3 assessed as microbial growth at 100 uM measured at 30 mins interval with 15 secs shaking for up to 48 hrs in presence of glucose by spectrophotometric analysis relative to untreated control; type: organism-based; details: in vivo
[4] = Inhibition of starch utilization system in Bacteroides dorei JRO3 assessed as increase in lag time at 5 uM up to 48 hrs in presence of pullulan by spectrophotometric analysis; details: Phocaeicola dorei
[5] = Inhibition of starch utilization system in Bacteroides dorei JRO3 assessed as increase in lag time at 0.1 to 10 uM up to 48 hrs in presence of potato starch by spectrophotometric analysis; details: Phocaeicola dorei
Phocaeicola dorei [6] = experiment: Effect on growth of Bacteroides dorei JRO3 assessed as microbial growth at 100 uM measured at 30 mins interval with 15 secs shaking for up to 48 hrs in presence of maltose by spectrophotometric analysis relative to untreated control; type: organism-based; details: in vivo
Phocaeicola dorei [7] = experiment: Effect on growth of Bacteroides dorei JRO4 assessed as microbial growth at 100 uM measured at 30 mins interval with 15 secs shaking for up to 48 hrs in presence of maltose by spectrophotometric analysis relative to untreated control; type: organism-based; details: in vivo
[8] = Inhibition of starch utilization system in Bacteroides dorei JRO3 assessed as bacterial growth at 5 uM after 13.5 hrs in presence of pullulan by spectrophotometric analysis relative to untreated control; design: scale not given: the % may be the effect or the level left; details: Phocaeicola dorei
[9] = Inhibition of starch utilization system in Bacteroides dorei JRO3 assessed as bacterial growth at 1 uM after 14 hrs in presence of potato starch by spectrophotometric analysis relative to untreated control; design: scale not given: the % may be the effect or the level left; details: Phocaeicola dorei
[10] = Inhibition of starch utilizing system in Bacteroides dorei JRO3 assessed as microbial growth at 100 uM measured at 30 mins interval with 15 secs shaking for up to 48 hrs in presence of pullulan by spectrophotometric analysis relative to untreated control; design: scale not given: the % may be the effect or the level left; details: Phocaeicola dorei
[11] = Inhibition of starch utilizing system in Bacteroides dorei JRO1 assessed as microbial growth at 100 uM measured at 30 mins interval with 15 secs shaking for up to 48 hrs in presence of potato starch by spectrophotometric analysis relative to untreated control; design: scale not given: the % may be the effect or the level left; details: Phocaeicola dorei
Phocaeicola dorei [12] = experiment: Effect on growth of Bacteroides dorei JRO4 assessed as microbial growth at 100 uM measured at 30 mins interval with 15 secs shaking for up to 48 hrs in presence of glucose by spectrophotometric analysis relative to untreated control; type: organism-based; details: in vivo
[13] = Inhibition of starch utilizing system in Bacteroides dorei JRO1 assessed as microbial growth at 100 uM measured at 30 mins interval with 15 secs shaking for up to 48 hrs in presence of pullulan by spectrophotometric analysis relative to untreated control; design: scale not given: the % may be the effect or the level left; details: Phocaeicola dorei
Phocaeicola dorei [14] = experiment: Effect on growth of Bacteroides dorei JRO2 assessed as microbial growth at 100 uM measured at 30 mins interval with 15 secs shaking for up to 48 hrs in presence of glucose by spectrophotometric analysis relative to untreated control; type: organism-based; details: in vivo
Phocaeicola dorei [15] = experiment: Effect on growth of Bacteroides dorei JRO1 assessed as microbial growth at 100 uM measured at 30 mins interval with 15 secs shaking for up to 48 hrs in presence of maltose by spectrophotometric analysis relative to untreated control; type: organism-based; details: in vivo
[16] = Inhibition of starch utilization system in Bacteroides dorei JRO3 assessed as increase in doubling time at 10 uM in presence of pullulan by spectrophotometric analysis; details: Phocaeicola dorei
[17] = Inhibition of starch utilizing system in Bacteroides dorei JRO4 assessed as microbial growth at 100 uM measured at 30 mins interval with 15 secs shaking for up to 48 hrs in presence of potato starch by spectrophotometric analysis relative to untreated control; design: scale not given: the % may be the effect or the level left; details: Phocaeicola dorei
[18] = Inhibition of starch utilizing system in Bacteroides dorei JRO4 assessed as microbial growth at 100 uM measured at 30 mins interval with 15 secs shaking for up to 48 hrs in presence of pullulan by spectrophotometric analysis relative to untreated control; design: scale not given: the % may be the effect or the level left; details: Phocaeicola dorei
[19] = Inhibition of starch utilization system in Bacteroides dorei JRO3 assessed as reduction in bacterial growth at 0.1 uM after 14 hrs in presence of potato starch by spectrophotometric analysis; details: Phocaeicola dorei
Phocaeicola dorei [20] = experiment: Effect on growth of Bacteroides dorei JRO2 assessed as microbial growth at 100 uM measured at 30 mins interval with 15 secs shaking for up to 48 hrs in presence of maltose by spectrophotometric analysis relative to untreated control; type: organism-based; details: in vivo
[21] = Inhibition of starch utilization system in Bacteroides dorei JRO3 assessed as bacterial growth at 5 uM after 14 hrs in presence of potato starch by spectrophotometric analysis relative to untreated control; design: scale not given: the % may be the effect or the level left; details: Phocaeicola dorei
[22] = Inhibition of starch utilization system in Bacteroides dorei JRO3 assessed as bacterial growth at 0.5 uM after 13.5 hrs in presence of pullulan by spectrophotometric analysis relative to untreated control; design: scale not given: the % may be the effect or the level left; details: Phocaeicola dorei
[23] = Inhibition of starch utilization system in Bacteroides dorei JRO3 assessed as reduction in bacterial growth at 0.1 uM after 13.5 hrs in presence of pullulan by spectrophotometric analysis; details: Phocaeicola dorei
[24] = Inhibition of starch utilization system in Bacteroides dorei JRO3 assessed as bacterial growth at 0.5 uM after 14 hrs in presence of potato starch by spectrophotometric analysis relative to untreated control; design: scale not given: the % may be the effect or the level left; details: Phocaeicola dorei
[25] = Inhibition of starch utilizing system in Bacteroides dorei JRO2 assessed as microbial growth at 100 uM measured at 30 mins interval with 15 secs shaking for up to 48 hrs in presence of pullulan by spectrophotometric analysis relative to untreated control; design: scale not given: the % may be the effect or the level left; details: Phocaeicola dorei
[26] = Inhibition of starch utilization system in Bacteroides dorei JRO3 assessed as increase in doubling time at 0.1 to 10 uM in presence of potato by spectrophotometric analysis; details: Phocaeicola dorei
[27] = Inhibition of starch utilizing system in Bacteroides dorei JRO2 assessed as microbial growth at 100 uM measured at 30 mins interval with 15 secs shaking for up to 48 hrs in presence of potato starch by spectrophotometric analysis relative to untreated control; design: scale not given: the % may be the effect or the level left; details: Phocaeicola dorei
[28] = Inhibition of starch utilization system in Bacteroides dorei JRO3 assessed as bacterial growth at 1 uM after 13.5 hrs in presence of pullulan by spectrophotometric analysis relative to untreated control; design: scale not given: the % may be the effect or the level left; details: Phocaeicola dorei

Activity [1]: 2.6%
Activity (Phocaeicola dorei [2]): 100.7%
Activity (Phocaeicola dorei [3]): 118.7%
inhibition [4]: Active
inhibition [5]: inactive
Activity (Phocaeicola dorei [6]): 123.3%
Activity (Phocaeicola dorei [7]): 71.8%
Activity [8]: 11.2%
Activity [9]: 28.2%
Activity [10]: 10.4%
Activity [11]: 3.9%
Activity (Phocaeicola dorei [12]): 105.8%
Activity [13]: 6.5%
Activity (Phocaeicola dorei [14]): 100%
Activity (Phocaeicola dorei [15]): 103%
inhibition [16]: Active
Activity [17]: 2.4%
Activity [18]: 4.8%
inhibition [19]: inactive
Activity (Phocaeicola dorei [20]): 99.4%
Activity [21]: 6.6%
Activity [22]: 49.9%
inhibition [23]: inactive
Activity [24]: 59.9%
Activity [25]: 10.1%
inhibition [26]: Active
Activity [27]: 3.7%
Activity [28]: 21.3%
SMILES: C[C@H]1O[C@H](O[C@H]2[C@H](O)[C@@H](O)[C@@H](O[C@H]3[C@H](O)[C@@H](O)C(O)O[C@@H]3CO)O[C@@H]2CO)[C@H](O)[C@@H](O)[C@@H]1N[C@H]1C=C(CO)[C@@H](O)[C@H](O)[C@H]1O (stereo partly drawn) [ACARBOSE]
